{
  "source": "patent US11612586B2",
  "about": "“Indole regulation of antigen presenting cells” (THE TEXAS A&M UNIVERSITY SYSTEM, priority 2016, dated 2023)",
  "key": {"Salmonella Typhimurium": {"test_system": "Salmonella Typhimurium", "experiment": "Salmonella invasion of HeLa epithelial cells (Salmonella exposed to indole)", "format": "cell-based"}, "Akt": {"test_system": "Akt", "experiment": "phospho-Akt in BMDCs, flow cytometry", "format": "cell-based, mouse", "procedure": "Flow cytometric analysis was performed on BMDCs conditioned with indole from day 3 of culture and subsequently stimulated with LPS (5 ug/ml) for the given times. Cells were stained for phospho-Akt and analyzed by flow cytometry.\nFlow cytometric analysis was performed on BMDCs from WT or AhrKO mice cultured in the presence of indole (1 mM) from day 3. DCs were stimulated with LPS (5 ug/ml) for the given times and stained for phospho-Akt, which was detected by flow cytometry. Percentage of pAkt-positive DCs indicated. Representative data is from one of three independent experiments.\nAnother central mediator of cellular signaling is the serine/threonine kinase, Akt (also referred to as protein kinase B), which regulates cellular processes including metabolism, growth, proliferation, and survival. The Akt pathway is activated by numerous receptor tyrosine kinases, cytokine receptors, G-protein-coupled receptors, and other molecules which activate the lipid kinase PI3K and result in production of phosphatidylinositol (3,4,5)-trisphosphate (PIPS). This second messenger acts as a docking site at the plasma membrane for Akt where phosphorylation and activation occurs. Akt is located upstream of NF-kB and can induce NF-kB signaling via phosphorylation of IKKα and Tp12. The effect of indole on Akt phosphorylation was assessed to determine whether indole's inhibition of NF-kB might be a secondary effect due to modulation of an upstream target.\nThe inventors performed a series of assays where bone marrow derived macrophages (BMDMs), bone marrow derived dendritic cells (BMDCs), and splenic dendritic cells (splenic DCs), were exposed to a series of TDMMs, including indole, indole-3-acetate (I3AT), 5-hydroxyindole (5HI), and indole-3-pyruvate (I3P), as well as indole-3-carbinol (I3C; a plant derived compound) to be used for a positive control (1 mM for 24 hours). The BMDMs and BMDCs were stimulated with LPS for 4 hours and assayed at day 7 for expression of various pro-inflammatory cytokines. In a similar assay, the BMDMs and BMDCs were stimulated with LPS or CpG, respectively, for 15 minutes and assayed for pAKT and pERK signaling, which is a reflection of pro-inflammatory response."}, "Th17 cells": {"test_system": "Th17 cells", "experiment": "Th17 differentiation in DC-T cell co-culture", "format": "cell-based, mouse", "conditions": "co-culture with DCs conditioned with indole, Th17-skewing cytokines present", "procedure": "(§1) FIGS. 19A-19C graphically illustrate that indole-conditioned DCs inhibit Th1, Th2, and Th17 differentiation. Naïve CD4+CD25-T cells from OT-II TCR transgenic mice were isolated by column purification. Naïve T cells were then co-cultured with OVA323-339 peptide-loaded BMDCs for 72 hours in the presence or absence of lineage-skewing cytokines (described in methods). BMDCs were previously treated with indole, RA, or DMF from day 3. For the last 5 hours of culture, T cells were restimulated with PMA and ionomycin in the presence of Golgiplug, followed by intracellular staining. Cytokine production was determined to assess differentiation of Th1 (FIG. 19A), Th2 (FIG. 19B), and Th17 CD4+T (FIG. 19C) cells. Mean of three independent experiments. * indicates p<0.05 for one-way ANOVA followed by Dunnett's post-test.\nIn order to determine whether the indole-conditioned DC induction of Tregs was specific to this lineage, additional T cell fates were quieried. Activated CD4+T helper cells are typically divided into the subsets Th1, Th2, Th17, and Treg, based on their expression of transcription factors and pattern of cytokine secretion. The antigen-specific co-culture system was used to investigate these remaining traditional T cell lineages with the addition of an endpoint PMA/Ionomycin stimulation to induce cytokine secretion. […]"}, "Th1 cells": {"test_system": "Th1 cells", "experiment": "Th1 differentiation in DC-T cell co-culture", "format": "cell-based, mouse", "procedure": "as §1\nFIGS. 20A and 20B graphically illustrate that T cell skewing mediated by indole-conditioned DCs is AhR-independent. BMDCs were differentiated from WT or AhR-KO mice and conditioned with indole, RA, or DMF from day 3. DCs were then loaded with OVA323-339 and co-cultured with naïve CD4+CD25− T cells from OT-II transgenic mice for 72 hours. […] Subsequently, all cultures were stained and analyzed by flow cytometry for Foxp3 to identify Tregs or (B) IFNγ to identify Th1 cells. […]"}, "TNF": {"test_system": "TNF", "experiment": "TNF production in BMDCs, intracellular staining, flow cytometry", "format": "cell-based, mouse"}},
  "data": [
    {"compound": "c1ccc2[nH]ccc2c1", "note": "[Indole, indole]", "values": [
      {"measurement": "decrease of Salmonella invasion of HeLa epithelial cells", "setting": "Salmonella Typhimurium", "result": 160, "unit": "fold"},
      {"measurement": "pAKT", "setting": "Akt; BMDCs, 1 mM TDMM 24 hours, CpG (5 uM) 15 minutes", "result": "↓↓"},
      {"measurement": "reduction of phospho-Akt", "setting": "Akt; BMDCs, 1 mM indole, 30 minutes post-LPS stimulation", "result": "over 50%"},
      {"measurement": "phospho-Akt in the absence of external stimulation", "setting": "Akt; BMDCs, indole versus controls, unstimulated", "result": "No difference"},
      {"measurement": "inhibition of Akt phospho-signaling, WT versus AhR−/−", "setting": "Akt; indole-DCs generated from WT or AhR−/− bone marrow", "result": "nearly equivalent inhibition"},
      {"measurement": "Th17 differentiation, rate of T cells", "setting": "Th17 cells", "result": "less than 0.5%"},
      {"measurement": "development of Th1 lineage", "setting": "Th1 cells; co-culture with DCs conditioned with indole", "result": "stark inhibition"},
      {"measurement": "AhR dependence of inhibition of the Th1 lineage", "setting": "Th1 cells; indole-conditioned BMDCs from wild-type or AhR-deficient mice", "result": "AhR-independent"},
      {"measurement": "reduction in TNF", "setting": "TNF; BMDCs exposed to indole from day 3 of 7 day culture, LPS stimulation", "result": 30, "unit": "%"},
      {"measurement": "inhibition of TNF production", "setting": "TNF; BMDCs, indole for 18 hours followed by TLR stimulation", "result": "~2", "unit": "fold"}
    ]}
  ]
}
